Measurements taken from patent US6049003A, “Azoamidine compound” (Wako Pure Chemical Industries, Ltd., priority 1998, dated 2000).

Columns and labels:
[1] = comparison of solubility in various kinds of solvents (Table 3); type: physicochemical
[2] = solution polymerization of acrylamide with the azoamidine compound as initiator (Table 1); conditions: acrylamide in water, 50° C.
Protocol: Acrylamide (20 g) was dissolved in 380 g of distilled water and 0.01 g of the azoamidine compound obtained in Example 1 was added thereto as a polymerization initiator. The reaction solution was heated at 50° C. with stirring under nitrogen gas atmosphere to cause polymerization reaction. After the polymerization reaction was started, samplings of the reaction solution were conducted at predetermined intervals, and the samples were precipitated by methanol to recover the produced polymer, followed by drying. The polymerization rates at each sampling time were measured.
The same polymerization reaction as Example 4 was conducted except for using azoamidine compounds, in which an α-amino acid residue as introduced, of 2,2'-azobis(N-carboxymethyl-2-methylpropionamidine) [drawing 10] or 2,2'-azobis[N-(1-carboxyethyl)-2-methylpropionamidine] [drawing 11] as a polymerization initiator.

[3] = decomposition rate constant at 50° C. (Table 1); type: physicochemical
[4] = 10 hours half life temperature; type: physicochemical
[5] = emulsion polymerization of styrene with the azoamidine compound as initiator (Table 2); conditions: for Polymerization Rate(%): sodium dodecyl sulfate
Protocol: Distilled water (400 g), sodium dodecyl sulfate (4 g) and azoamidine compound (0.5 g) obtained in Example 1 were mixed with one another and were stirred to give a solution, and 200 g of styrene monomer was added thereto, followed by stirring to make emulsion. The resultant was subjected to polymerization reaction at 50° C. with stirring under nitrogen gas atmosphere. After the polymerization reaction was started, samplings of the reaction solution were conducted at predetermined intervals, and the samples were precipitated by methanol to recover the produced polymer, followed by drying. The polymerization rates at each sampling time were measured.
The same emulsion polymerization as Example 5 was conducted except for using a typical known azoamidine compound, of 2,2'-azobis(2-methylpropionamidine) dihydrochloride as a polymerization initiator.

[6] = 50° C., polymerization time 1 H
[7] = 50° C., polymerization time 1.5 H
[8] = 50° C., polymerization time 2 H
[9] = 50° C., polymerization time 3 H
[10] = 50° C., polymerization time 4 H
[11] = 50° C., polymerization time 5 H
[12] = 50° C., polymerization time 6 H

SMILES	solubility in Methanol (in words) ([1]; Methanol)	solubility in Water [1]	Polymerization Rate(%) ([2]; polymerization time 1 H)	Polymerization Rate(%) ([2]; polymerization time 1.5 H)	Polymerization Rate(%) ([2]; polymerization time 2 H)	Polymerization Rate(%) ([2]; polymerization time 3 H)	Polymerization Rate(%) ([2]; polymerization time 4 H)	Polymerization Rate(%) ([2]; polymerization time 5 H)	Polymerization Rate(%) ([2]; polymerization time 6 H)	Polymerization Rate(%) [5, 6]	Polymerization Rate(%) [5, 7]	Polymerization Rate(%) [5, 8]	Polymerization Rate(%) [5, 9]	Polymerization Rate(%) [5, 10]	Polymerization Rate(%) [5, 11]	Polymerization Rate(%) [5, 12]	also measured
CC(NC(=N)C(C)(C)N=NC(C)(C)C(=N)NC(C)C(=O)O)C(=O)O (stereo not drawn) [Reference Example 2, 2,2'-azobis[N-(1-carboxyethyl)-2-methylpropionamidine]]	insoluble	0.8%	19.0%	24.2%	28.8%	33.8%	38.5%	46.3%	47.1%								
CC(C)(N=NC(C)(C)C(=N)NCCC(=O)O)C(=N)NCCC(=O)O.O.O [Example 1, 2,2'-azobis[N-(2-carboxyethyl)-2-methylpropionamidine] dihydrate]		10.0%	6.7%	22.3%	34.2%	53.3%	64.8%	70.6%	74.7%	25.2%	51.0%	74.3%	89.2%	93.5%	94.4%	95.4%	Decomposition Rate Constant at 50° C. [3]: 7.3e-06 s⁻¹; solubility in Methanol ([1]; Methanol): 36.9%; 10 hours half life temperature [4]: 57 °C
CC(C)(N=NC(C)(C)C(=N)N)C(=N)N.Cl.Cl [Reference Example 3, 2,2'-azobis(2-methylpropionamidine) dihydrochloride]										32.0%	37.1%	69.9%	88.4%	91.4%	93.1%	92.2%	dead end phenomenon in emulsion polymerization ([5]; 50° C.): dead end phenomenon was observed; polymerization rate at 6 hour polymerization and later (in words) ([5]; 6 hours and later): reduced
CC(C)(N=NC(C)(C)C(=N)NCC(=O)O)C(=N)NCC(=O)O [Reference Example 1, 2,2'-azobis(N-carboxymethyl-2-methylpropionamidine)]	insoluble	0.4%	15.8%	21.2%	25.0%	32.5%	37.2%	38.3%	41.2%								
